What was measured:
[1] = test system: cancer cell lines; test: Cancer cell proliferation activity of representative nucleosides, CellTiterGlo 72 h (Example 7, Tables 8 and 9); format: cell-based; conditions: 72 h
Method in brief: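 Cancer cell lines seeded and incubated at 37° C overnight, then exposed to nucleosides (final DMSO 0.1%) for 72 h at 37° C with 5% or 10% CO2. Viability read by CellTiterGlo luminescence and normalized to 0.1% DMSO (100%) and 10 μM staurosporine (0%) controls.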

[2] = test system: human LINE-1; test: Human LINE-1 (L1) retrotransposition dual-luciferase reporter assay in HeLa cells; format: cell-based; conditions: Homo sapiens, HeLa, 72 h, read-out: Human LINE-1 IC50 (Human L1 activity inhibition)
Method in brief: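 HeLa cells transfected with dual-luciferase L1 plasmid pYX017 (100 ng/well), dosed immediately after with serially diluted compounds (0.2% DMSO final) in triplicate and incubated 72 h at 37 °C. Relative L1 activity = Firefly/Renilla ×10,000; IC50 from logistic non-linear regression.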

In the case of `C#C[C@]1(CO)O[C@@H](n2cc(F)c(N)nc2=O)C[C@@H]1O` [compound 9], the IC50 ([1]; 72 h, 5637, bladder) is reported as 0.81 µM, the IC50 ([1]; CLS439, bladder) is reported as > 50 µM and the IC50 ([1]; HS729, muscle) is reported as > 50 µM. For the same compound, the IC50 ([1]; J82, bladder) was 1.16 µM, the IC50 ([1]; JAR, placenta) was 7.25 µM and the IC50 ([1]; MT3, breast) was 1.46 µM. The IC50 ([1]; PC3, prostate) was 6.33 µM, the IC50 ([1]; RD, muscle) was 4.22 µM and the IC50 ([1]; T24, bladder) was 3.76 µM. The IC50 ([1]; Homo sapiens, 22Rv1, 72 h, 22RV1, prostate) was 0.55 µM, the IC50 ([1]; Homo sapiens, 786-0, 72 h, 786O, kidney) was 3.54 µM and the IC50 ([1]; Homo sapiens, A204, 72 h, A204, muscle) was 9.82 µM. The IC50 ([1]; Homo sapiens, A549, 72 h, A549, lung) was 1.24 µM, the IC50 ([1]; Homo sapiens, A673, 72 h, A673, bone) was 1.96 µM and the IC50 ([1]; Homo sapiens, A2780, 72 h, A2780, ovary) was 4.18 µM. The IC50 ([1]; Homo sapiens, A-375, 72 h, A375, skin) was > 50 µM, the IC50 ([1]; Homo sapiens, A-431, 72 h, A431, skin) was 0.11 µM and the IC50 ([1]; Homo sapiens, ACHN, kidney) was 1.05 µM. The IC50 ([1]; Homo sapiens, ASPC1, 72 h, ASPC1, pancreas) was 2.58 µM, the IC50 ([1]; Homo sapiens, BT-20, 72 h, BT20, breast) was > 50 µM and the IC50 ([1]; Homo sapiens, BXPC-3, 72 h, BXPC3, pancreas) was 0.23 µM. For the same compound, the IC50 ([1]; Homo sapiens, C-33-A, C33A, endometrial) was 4.56 µM, the IC50 ([1]; Homo sapiens, CAKI-1, 72 h, CAKI1, kidney) was > 50 µM and the IC50 ([1]; Homo sapiens, COLO 205, 72 h, COLO205, colon) was 0.91 µM. The IC50 ([1]; Homo sapiens, COLO-678, 72 h, COLO678, colon) was > 50 µM, the IC50 ([1]; Homo sapiens, Ca-Ski, CASKI, endometrial) was 11.6 µM and the IC50 ([1]; Homo sapiens, Caco-2, 72 h, CACO2, colon) was > 50 µM. For the same compound, the IC50 ([1]; Homo sapiens, Calu-6, 72 h, CALU6, lung) was > 50 µM, the IC50 ([1]; Homo sapiens, DLD-1, 72 h, DLD1, colon) was 4.35 µM and the IC50 ([1]; Homo sapiens, DU-145, 72 h, DU145, prostate) was 2.42 µM. It also gave an IC50 ([1]; Homo sapiens, EFO-21, 72 h, EFO21, ovary) of 2.41 µM, an IC50 ([1]; Homo sapiens, EJ-28, 72 h, EJ28, bladder) of 2.21 µM and an IC50 ([1]; Homo sapiens, Granta-519, 72 h, GRANTA-519, hematological) of 3.24 µM. For the same compound, the IC50 ([1]; Homo sapiens, HCT-15, 72 h, HCT15, colon) was 4.08 µM, the IC50 ([1]; Homo sapiens, HCT-116, 72 h, HCT116, colon) was > 50 µM and the IC50 ([1]; Homo sapiens, HEK293, 72 h, HEK293, kidney) was 7.63 µM. It also gave an IC50 ([1]; Homo sapiens, HL-60, 72 h, HL-60, hematological) of 4.04 µM, an IC50 ([1]; Homo sapiens, HT-29, 72 h, HT29, colon) of 1.47 µM and an IC50 ([1]; Homo sapiens, HT-1080, 72 h, HT1080, connective tissue) of 2.88 µM. For the same compound, the IC50 ([1]; Homo sapiens, HeLa, endometrial) was > 50 µM, the IC50 ([1]; Homo sapiens, HepG2, 72 h, HEPG2, liver) was 1.6 µM and the IC50 ([1]; Homo sapiens, Hs-578T, HS578T, breast) was > 50 µM. The IC50 ([1]; Homo sapiens, IGROV-1, 72 h, IGROV1, ovary) was 5.01 µM, the IC50 ([1]; Homo sapiens, IMR-90, 72 h, IMR90, lung) was > 50 µM and the IC50 ([1]; Homo sapiens, JEG-3, 72 h, JEG3, placenta) was 0.99 µM. For the same compound, the IC50 ([1]; Homo sapiens, JIMT-1, 72 h, JIMT1, breast) was 4.47 µM, the IC50 ([1]; Homo sapiens, K562, 72 h, K-562, hematological) was 4.38 µM and the IC50 ([1]; Homo sapiens, Kasumi 1, 72 h, KASUMI-1, hematological) was > 50 µM. It also gave an IC50 ([1]; Homo sapiens, L-363, 72 h, L-363, hematological) of 1.96 µM, an IC50 ([1]; Homo sapiens, LoVo, colon) of 1.62 µM and an IC50 ([1]; Homo sapiens, MCF7, 72 h, MCF7, breast) of 1.19 µM. The IC50 ([1]; Homo sapiens, MDA-MB-231, 72 h, MDAMB231, breast) was > 50 µM, the IC50 ([1]; Homo sapiens, MDA-MB-435, 72 h, MDAMB435, skin) was 4.39 µM and the IC50 ([1]; Homo sapiens, MDA-MB-436, 72 h, MDAMB436, breast) was 1.37 µM. The IC50 ([1]; Homo sapiens, MDA-MB-468, 72 h, MDAMB468, breast) was > 50 µM, the IC50 ([1]; Homo sapiens, MG-63, 72 h, MG63, bone) was 2.44 µM and the IC50 ([1]; Homo sapiens, MHH-ES-1, 72 h, MHHES1, bone) was 1.53 µM. It also gave an IC50 ([1]; Homo sapiens, MIA PaCa-2, 72 h, MIAPACA2, pancreas) of 3.75 µM, an IC50 ([1]; Homo sapiens, MINO, hematological) of 3.74 µM and an IC50 ([1]; Homo sapiens, MV4-11, 72 h, MV4-11, hematological) of 0.39 µM. For the same compound, the IC50 ([1]; Homo sapiens, NCI-H23, 72 h, NCI-H23, lung) was 2.42 µM, the IC50 ([1]; Homo sapiens, NCI-H82, 72 h, NCIH82, lung) was 2.35 µM and the IC50 ([1]; Homo sapiens, NCI-H292, 72 h, NCIH292, lung) was > 50 µM. The IC50 ([1]; Homo sapiens, NCI-H460, 72 h, NCIH460, ung) was 1.06 µM, the IC50 ([1]; Homo sapiens, OVCAR-3, 72 h, OVCAR3, ovary) was 5.6 µM and the IC50 ([1]; Homo sapiens, OVCAR-4, 72 h, OVCAR4, ovary) was > 50 µM. For the same compound, the IC50 ([1]; Homo sapiens, PANC-1, 72 h, PANC1, pancreas) was 6.4 µM, the IC50 ([1]; Homo sapiens, PLC-PRF-5, 72 h, PLCPRF5, liver) was 3.24 µM and the IC50 ([1]; Homo sapiens, Panc1005, 72 h, PANC1005, pancreas) was 16.4 µM. The IC50 ([1]; Homo sapiens, Ramos, hematological) was 5.3 µM, the IC50 ([1]; Homo sapiens, SAOS-2, 72 h, SAOS2, bone) was 4.72 µM and the IC50 ([1]; Homo sapiens, SF-268, 72 h, SF268, brain) was 1.65 µM. For the same compound, the IC50 ([1]; Homo sapiens, SF-295, 72 h, SF295, brain) was 4.49 µM, the IC50 ([1]; Homo sapiens, SK-BR-3, 72 h, SKBR3, breast) was 0.12 µM and the IC50 ([1]; Homo sapiens, SK-HEP1, 72 h, SKHEP1, liver) was 1.29 µM. The IC50 ([1]; Homo sapiens, SK-LMS-1, 72 h, SKLMS1, uterus) was 5.61 µM, the IC50 ([1]; Homo sapiens, SK-MEL-5, 72 h, SKMEL5, skin) was 5.52 µM and the IC50 ([1]; Homo sapiens, SK-MEL-28, 72 h, SKMEL28, skin) was > 50 µM. The IC50 ([1]; Homo sapiens, SK-N-AS, SKNAS, brain) was > 50 µM, the IC50 ([1]; Homo sapiens, SK-N-SH, SKNSH, brain) was 2.44 µM and the IC50 ([1]; Homo sapiens, SK-OV-3, 72 h, SKOV3, ovary) was 1.64 µM. For the same compound, the IC50 ([1]; Homo sapiens, SNB-75, 72 h, SNB75, brain) was > 50 µM, the IC50 ([1]; Homo sapiens, SU-DHL10, 72 h, SU-DHL-10, hematological) was 3.15 µM and the IC50 ([1]; Homo sapiens, SU-DHL-6, 72 h, SU-DHL-6, hematological) was 4.69 µM. The IC50 ([1]; Homo sapiens, SW-620, 72 h, SW620, colon) was 0.91 µM, the IC50 ([1]; Homo sapiens, TE-671, 72 h, TE671, muscle) was 5.9 µM and the IC50 ([1]; Homo sapiens, THP-1, 72 h, THP-1, hematological) was 1.12 µM. The IC50 ([1]; Homo sapiens, U2OS, bone) was > 50 µM, the IC50 ([1]; Homo sapiens, U-87 MG, U87MG, brain) was 11.9 µM and the IC50 ([1]; Homo sapiens, UMUC3, 72 h, UMUC3, bladder) was 3.39 µM. The IC50 ([1]; Homo sapiens, UO-31, 72 h, UO31, kidney) was > 50 µM, the IC50 ([1]; Homo sapiens, WSU-NHL, hematological) was 3.53 µM and the IC50 ([1]; NCI-H358M, NCIH358M, lung) was > 50 µM. The IC50 ([1]; PBMC, hematological) was > 50 µM, the IC50 ([1]; RD-ES, RDES, bone) was 3.93 µM and the IC50 [2] was 0.021 µM.
